We go through one molecule from patent US9226912B2, “Acetyltanshinone IIA (ATA) as anticancer agent” (Nanyang Technological University, priority 2011, dated 2016).

Molecules are shown by their SMILES.

Series [1] in a line: Solubility relative to TIIA. The format is physicochemical. Conditions: in both DMSO and PBS. The procedure: A mixture of TIIA (2.04 g), sodium acetate (2.5 g), acetic anhydride (18 ml), and anhydrous zinc powder (6 g) is stirred in a boiling water bath for 3 h, then immediately filtrated by using a vacuum filtration system to remove the insoluble residues. The filtrate is diluted with water (300 ml), and then heated to boil. The resulting solution is cooled at room temperature and filtered to give a solid product (1.80 g). The product can be further crystallized using 95% ethanol to produce the final product (1.51 g) acetyltanshinone IIA (ATA) with chemical designation of 1,6,6-trimethyl-8,9-dihydro-10,11-diacetoxyl-7H-naphtho[1,2-g][1]benzofuran (FIG. 2). ATA appeared in white color, which is totally different from its original red color.

The next series relates to T47D. Nature of the series: Growth inhibition at 72 h by MTT assay. It counts as cell-based. Conditions: T47D (ER+).
Series [2] relates to xenografted tumors derived from human melanoma MDA-MB-435 cells. Nature of the series: Xenografted tumors in nude mice. It counts as in vivo. Particulars: 30 mg/kg, 3×/week intraperitoneal, four weeks. The procedure: ATA (▴ 30 mg/kg), etoposide (▪ ETS, 20 mg/kg) and vehicle control (◯) were injected into mice 3×/week via intraperitoneal injection. Average tumor size (A) and mice body weight (B) were measured from five mice.
The anti-tumour effect of ATA was examined in nude mice (FIG. 13 and FIG. 14) carrying solid tumours generated by injecting human melanoma MDA-MB-435 cells into the mice subcutaneously. The tumour size and mouse body weight were monitored over a period of four weeks.

The test system of the next series is MDA-MB-231. Nature of the series: Growth inhibition at 72 h by MTT assay.
The test system of a further series is MCF-7. Nature of the series: IC50 and LC50 of ATA at 48 h. It counts as cell-based. Conditions: Homo sapiens, MCF7, MCF-7 breast cancer.

As usually defined, the IC50 is the concentration that gives 50% inhibition. A higher IC50 goes with weaker potency in that assay. By inhibition is commonly meant the share of the control response that was lost under treatment. What is called CC50 is the concentration that lowers cell viability or growth by half.

In the case of `CC(=O)Oc1c(OC(C)=O)c2c(C)coc2c2ccc3c(c12)CCCC3(C)C` [ATA, 1,6,6-trimethyl-8,9-dihydro-10,11-diacetoxyl-7H-naphtho[1,2-g][1]benzofuran], the “higher solubility than TIIA” value in series [1] is given as 22 fold. The half-maximal inhibitory concentration (IC50) in the series on T47D (Homo sapiens) came out at 1400 ± 200 nM; in the series on MDA-MB-231 (Homo sapiens, MDA-MB-231, 72 h), 7.98 ± 0.18 µM; in the series on MCF-7, 1390 ± 640 nM. Moreover, the “IC50 ratio of tamoxifen/ATA” value amounted to 6.7 in the series with T47D and 2.7 in the series on MDA-MB-231 (MDA-MB-231 (ER−), 72 h). Besides, the “average body weight versus control mice” value in series [2] is “did not significantly decrease”. For the same molecule, the tumour growth entry in series [2] is on record as “significant inhibition on tumour growth”. In addition, in the series on MDA-MB-231 (Homo sapiens, MDA-MB-231, 72 h, read-out: growth inhibition rate), the inhibition at 3.13 µM came out at 32.3%. Also, the “IC50 value at 72 h lower in ER-positive than ER-negative cells” value in the series with MDA-MB-231 (MCF-7 and T47D versus MDA-MB-231) is recorded as 5.4-5.7 fold. The “Ratio of ER−/ER+ 231/MCF-7” value in the series with MDA-MB-231 (ratio of IC50 at 72 h, MDA-MB-231 over MCF-7) stood at 5.4. Also, the “Ratio of ER−/ER+ 231/T47D” value in the series with MDA-MB-231 (ratio of IC50 at 72 h, MDA-MB-231 over T47D) was 5.7. The molecule also had a CC50 in the series on MCF-7 of 7.64 ± 0.3 µM.
